From paper PMC3579193, “Elucidation of relaxin-3 binding interactions in the extracellular loops of RXFP3” (Frontiers in Endocrinology, 2013)
Substitutions are numbered along the chain they refer to. Entries after “also recorded” stand apart in the source; their conditions may differ.

Columns and labels:
HA-RXFP3 E55A/D58A = target: T1, HA-RXFP3 E55A/D58A (Homo sapiens, UniProt Q9NSD7, D58A/E55A); assay: Competition binding with Eu-H3/I5, HA-RXFP3 E55A/D58A
T1 construct: expressed in transfected cells; host or cells: HEK-293T
T1 sequence (Q9NSD7 2-469 E55A/D58A limits assumed): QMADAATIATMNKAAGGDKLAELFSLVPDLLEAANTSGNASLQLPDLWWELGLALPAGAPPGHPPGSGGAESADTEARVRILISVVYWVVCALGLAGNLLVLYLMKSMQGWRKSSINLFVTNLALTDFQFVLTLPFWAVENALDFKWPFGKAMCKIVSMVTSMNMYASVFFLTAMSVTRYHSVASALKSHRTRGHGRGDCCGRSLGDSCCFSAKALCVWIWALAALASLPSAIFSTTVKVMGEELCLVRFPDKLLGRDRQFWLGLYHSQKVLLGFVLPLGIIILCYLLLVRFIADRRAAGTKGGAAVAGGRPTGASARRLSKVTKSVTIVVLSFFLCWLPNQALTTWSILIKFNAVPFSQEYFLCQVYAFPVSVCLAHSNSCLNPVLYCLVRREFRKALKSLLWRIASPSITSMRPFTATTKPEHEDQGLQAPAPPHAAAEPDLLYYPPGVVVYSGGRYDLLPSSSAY
Experimental: (§1) PCR reactions and cloning were undertaken as previously described ([Scott et al., 2006], [2012]).
(§2) The same protocol was used to prepare DNA templates of all Glu/Asp to Ala mutants, entailing a single codon change except for D47A/E51A, E55A/D58A, and E141A/D145A which required a double codon change both to Ala. The forward and reverse primers for all mutants are listed in Table 1 and mutagenesis reactions on pcDNA3.1zeo (+)-HA-RXFP3 were performed as previously described ([Scott et al., 2006]; [Yan et al., 2008]). […]
(§3) HEK-293T cells were transfected in 96 well optiplates (Perkin Elmer) with plasmids encoding the constructs of interest and Eu-H3/I5 binding assays conducted as described previously ([Luo et al., 2010]; [Haugaard-Kedstrom et al., 2011]). […] Binding data are expressed as mean ± standard error of mean (SEM) of % specific binding of triplicate measurements pooled from at least three independent experiments. Data were analyzed using Graphpad PRISM (Graphpad Inc.) and a non-linear regression one-site binding model was used to plot curves and calculate pIC50 values. […] The HA epitope was detected using a purified mouse monoclonal anti-HA antibody [HA.11(16B12), Covance] and a Alexafluor488-labeled goat anti mouse IgG (Invitrogen) in cell surface expression assays that were performed in 24 well plates as previously described ([Yan et al., 2008]). […]

HA-RXFP3 E77A = target: T2, HA-RXFP3 E77A (Homo sapiens, UniProt Q9NSD7, E77A); assay: Competition binding with Eu-H3/I5, HA-RXFP3 E77A
T2 construct: expressed in transfected cells; host or cells: HEK-293T
T2 sequence (Q9NSD7 2-469 E77A limits assumed): T1 sequence (Q9NSD7 2-469 E55A/D58A limits assumed) with A54E, A57D, E76A
Experimental: as §1, §2, §3

HA-RXFP3 245A = target: T3, HA-RXFP3 245A (Homo sapiens, UniProt Q9NSD7, E245A); assay: Competition binding with Eu-H3/I5, HA-RXFP3 E245A
T3 construct: expressed in transfected cells; host or cells: HEK-293T
T3 sequence (Q9NSD7 2-469 E245A limits assumed): T1 sequence (Q9NSD7 2-469 E55A/D58A limits assumed) with A54E, A57D, E244A
Experimental: as §1, §2, §3

RXFP4 = settings: ref Liu et al., 2003a; cited from earlier work
Description: Relaxin-3 is a member of the relaxin peptide family. Peptides from this family activate relaxin family peptide (RXFP) receptors, which are Type I or Class A G protein-coupled receptors (GPCRs). […] The rela ... || Based on the hypothesis that coevolution of relaxin-3 and RXFP3 occurred in vertebrates and that residues important for relaxin-3 binding and activation should therefore be conserved we performed multiple sequence alignments of all vertebrate RXFP3 sequences. […] Figure 1A highlights sequence alignments of representative mammalian species (human, chimpanzee, rat, mouse, platypus) and representative lower vertebrate species (Frog and Zebrafish) from this analysis compa ... || Based on the hypothesis that coevolution of relaxin-3 and RXFP3 occurred in vertebrates, and in the knowledge that the key relaxin-3 B-chain residues are conserved across all vertebrate species ([Wilkinson et al., 2005b]), we performed multiple sequence alignments of all vertebrate RXFP3 sequences to identify highly conserved residues in the ELs and NT domain that may be involved in relaxin-3 binding. […] We have focused on glutamic (E) and aspartic acid (D) residues ...

CC[C@H](C)[C@@H]1NC(=O)[C@H](Cc2ccccc2)NC(=O)[C@H](CCC(=O)O)NC(=O)[C@H](CCCNC(=N)N)NC(=O)CNC(=O)[C@@H](NC(=O)[C@H](CC(C)C)NC(=O)[C@H](CCCNC(=N)N)NC(=O)[C@@H](NC(=O)CNC(=O)[C@H](Cc2ccc(O)cc2)NC(=O)[C@@H]2CCCN2C(=O)[C@H](C)NC(=O)[C@H](C)NC(=O)[C@@H](N)CCCNC(=N)N)C(C)C)CSSC[C@@H]2NC(=O)[C@@H](NC(=O)[C@H](CO)NC(=O)[C@H](CO)NC(=O)[C@H](CO)NC(=O)[C@H](CC(C)C)NC(=O)CNC(=O)[C@H](C)NC(=O)[C@H](CC(C)C)NC(=O)[C@@H](NC(=O)[C@@H](N)CC(=O)O)C(C)C)CSSC[C@H](NC(=O)CNC(=O)[C@H](Cc3c[nH]c4ccccc34)NC(=O)[C@H](CCCCN)NC2=O)C(=O)N[C@@H](CO)C(=O)N[C@@H](CCCCN)C(=O)N[C@@H](CO)C(=O)N[C@@H](CCC(=O)O)C(=O)N[C@@H]([C@@H](C)CC)C(=O)N[C@@H](CO)C(=O)N[C@@H](CO)C(=O)N[C@@H](CC(C)C)C(=O)N[C@H](C(=O)O)CSSC[C@@H](C(=O)NCC(=O)NCC(=O)N[C@@H](CO)C(=O)N[C@@H](CCCNC(=N)N)C(=O)N[C@@H](Cc2c[nH]c3ccccc23)C(=O)O)NC(=O)[C@H]([C@@H](C)O)NC(=O)[C@H](Cc2ccccc2)NC(=O)[C@H]([C@@H](C)CC)NC(=O)[C@H](C(C)C)NC(=O)[C@H](C)NC(=O)[C@H](CCCNC(=N)N)NC1=O [H3 relaxin]
IC50 (HA-RXFP3 E55A/D58A): 9.33 nM
affinity compared with HA-RXFP3 (HA-RXFP3 E55A/D58A; competition binding, p > 0.05): not significantly different from HA-RXFP3
IC50 (HA-RXFP3 E77A): 31.6 nM
affinity compared with HA-RXFP3 (HA-RXFP3 E77A; competition binding, p > 0.05): slightly lower H3 relaxin binding affinity but this was not significantly different from HA-RXFP3; also recorded: no significant difference in H3 relaxin affinity; also recorded: did not show a significant drop in binding
IC50 (HA-RXFP3 245A): 44.7 nM
affinity compared with HA-RXFP3 (HA-RXFP3 245A; competition binding, p > 0.05): slightly lower H3 relaxin binding affinity but this was not significantly different from HA-RXFP3; also recorded: no significant difference in H3 relaxin affinity; also recorded: did not show a significant drop in binding
binding to and activation of RXFP4 (RXFP4): binds to and activates human RXFP4
